Consider one molecule from US7169955B2, “Perfluoroisopropylbenzene derivative” (Nihon Nohyaku Co., Ltd., priority 2000, dated 2007).

What all share (assay type): in vivo
Series [1] concerns barnyard grass (Echinochloa crus-galli Beauv.). The series is described as follows: Herbicidal effect on paddy field weeds pre-emergence. Conditions: paddy soil treatment pre-emergence, 5 kg/ha, 21 days after treatment. On the procedure:
(§1) Soil was filled into 1/10000 are pots and brought into a state of paddy field, in which seeds of barnyard grass (Echinochloa crus-galli Beauv.) and bulrush (Scirpus juncoides Roxb.) were made to be before germination. The soil in the pots were treated with a solution containing a predetermined dosage of a chemical agent comprising a compound obtained in Reference Example 1 as the active ingredient.
(§2) Twenty one days after the treatment, the herbicidal effect was investigated, the result was compared with that in untreated plot to calculate the weedkilling rate, and the herbicidal effect was judged according to the following criterion.

Series [2] deals with bulrush (Scirpus juncoides Roxb.). The series is described as above. The note with it: paddy soil treatment pre-emergence, 5 kg/ha, 21 days after treatment. The method, then:
as §1, §2

For a further series, the system named is paddy rice. As to the kind of experiment: Phytotoxicity on paddy rice (paddy field pre-emergence test). The note with it: 5 kg/ha, 21 days after treatment. The method, then: as §1, §2
At the same time, phytotoxicity on paddy rice was investigated, and judged according to the following criterion.

In series [3] the test system is Arabidopsis thaliana. The series is described as follows: Herbicidal effect on upland weeds pre-emergence. Conditions: upland pre-emergence spray, 5 kg/ha, 14 days after treatment. The text has this: (§3) Polyethylene-made vats having a size of 10 cm (length)×20 cm (width)×5 cm (height) were filled with soil, sown with seeds of Arabidopsis thialiana, bent grass (Agrostis spp.) and monochoria (Monochoria veginalis), and with seeds of wheat and soybean plant as upland crop plants, and then covered with soil. Then, a liquid preparation of an agent comprising a prescribed concentration of a compound obtained in Reference Example 1 as active ingredient was sprayed.
(§4) Fourteen days after the treatment, the herbicidal effect was investigated, from which weed-killing rate was calculated in the same manner as in Reference Example 2, and the herbicidal effect was judged.

Series [4] concerns bent grass (Agrostis spp.). The series is described as follows: Herbicidal effect on upland weeds pre-emergence. Conditions: upland pre-emergence spray, 5 kg/ha, 14 days after treatment.
Excerpt: as §3, §4

In series [5] the test system is monochoria (Monochoria veginalis). The series is described as follows: Herbicidal effect on upland weeds pre-emergence. The note with it: upland pre-emergence spray, 5 kg/ha, 14 days after treatment.
Excerpt: as §3, §4

Series [6] concerns soybean plant. The series is described as follows: Phytotoxicity on upland crop plants, pre-emergence test. The note with it: upland pre-emergence spray, 5 kg/ha, 14 days after treatment.
Excerpt: as §3, §4
(§5) At the same time, phytotoxicity on soybean plant and wheat was investigated and judged according to the criterion mentioned in Reference Example 1.

Series [7] relates to wheat. The description is as above. Conditions: upland pre-emergence spray, 5 kg/ha, 14 days after treatment.
Excerpt: as §3, §4, §5

In series [8] the test system is Arabidopsis thaliana. As to the kind of experiment: Herbicidal effect on upland weeds after emergence. The note with it: after emergence (1 to 2 leaved stage) spray, 5 kg/ha, 14 days after treatment. An excerpt: (§6) Polyethylene-made vats having a size of 10 cm (length)×20 cm (width)×5 cm (height) were filled with soil, sown with the seeds of the upland weeds mentioned below and with seeds of soybean plant and wheat as upland crop plants, and then covered with soil. The plants were made to grow up until they reached the 1 to 2 leaved stage, after which an agent comprising a prescribed concentration of a compound obtained in Reference Example 1 as active ingredient was sprayed.
(§7) Fourteen days after the treatment, the herbicidal effect was investigated, from which weed-killing rate was calculated in the same manner as in Reference Example 2 and the results were judged. At the same time, phytotoxicity on soybean plant and wheat was investigated and judged in the same manner as in Reference Example 2.

The test system of series [9] is bent grass (Agrostis spp.). As to the kind of experiment: Herbicidal effect on upland weeds after emergence. The note with it: after emergence (1 to 2 leaved stage) spray, 5 kg/ha, 14 days after treatment.
Excerpt: as §6, §7

Series [10] relates to monochoria (Monochoria veginalis). The series is described as follows: Herbicidal effect on upland weeds after emergence. Conditions: after emergence (1 to 2 leaved stage) spray, 5 kg/ha, 14 days after treatment.
Excerpt: as §6, §7

Series [11] has as its system soybean plant. As to the kind of experiment: Phytotoxicity on upland crop plants, after-emergence test. Conditions: after emergence spray, 5 kg/ha, 14 days after treatment.
Excerpt: as §6, §7

The test system of series [12] is wheat. The series is described as above. The note with it: after emergence spray, 5 kg/ha, 14 days after treatment.
Excerpt: as §6, §7

For the molecule `CN(C)C(=O)Nc1ccc(C(F)(C(F)(F)F)C(F)(F)F)cc1` [Reference Example 1, 1,1-dimethyl-3-(4-heptafluoroisopropylphenyl)urea], the “herbicidal effect (rating)” value in series [1] is recorded as 4 (Weedkilling rate is 90–99%.); in series [2] it was 2 (Weedkilling rate is 40–69%.); in the series on Arabidopsis thaliana [3], 5 (Weedkilling rate is 100%.); in series [4], 4 (Weedkilling rate is 90–99%.); in [5] it was 5 (Weedkilling rate is 100%.); with Arabidopsis thaliana [8], 5 (Weedkilling rate is 100%.). In addition, the “herbicidal effect (rating)” value in series [9] and in [10] was 3 (Weedkilling rate is 70–89%.) each time. Besides, the “phytotoxicity (rating)” value in the series on paddy rice, in the series with soybean plant [6], with wheat [7], in the series on soybean plant [11] and in the series with wheat [12] was 0 (Weedkilling rate is 0–20 (No phytotoxicity).) throughout.
